Test results reported in publication PMC6839174, “Targeting the Formyl Peptide Receptor type 1 to prevent the adhesion of ovarian cancer cells onto mesothelium and subsequent invasion” (Journal of Experimental & Clinical Cancer Research : CR, 2019).
Non-standard residues stand in square brackets, D forms with d. Aib = CC(C)(N)C(=O)O

Assays:
SKOV-3 cells = test: Adhesion of SKOV-3 cells onto extracellular matrix proteins (24-well plates, cell counting); assay type: cell-based, Human
Protocol: Adhesion assays were performed using 24 multi-well plates coated with 1% BSA, 5 μg mL vitronectin (Vn), 5 μg mL fibronectin (Fn), 5 μg mL laminin (Lm) or 15 μg mL collagen (Coll) diluted in serum-free medium. Sub-confluent cells were harvested by a mild trypsinization, incubated with 10% FBS / DMEM for 1 h at 37 °C, 5% CO2, acid treated with a buffer containing 50 mM glycin-HC1, 0.1 M NaCl, pH 3 for 4 min at 22 °C, to remove receptor-bound ligands, and counted. Viable cells (2 × 10^5 cells per well) were plated in serum-free medium, in the absence or presence of 2 μg/mL R3 mAb recognizing the DI uPAR domain, 2 μg/mL399 anti-uPAR (American Diagnostica), 2 μg/mL anti-uPAR84-95 (PRIMM), 2 μg/mL anti-α-tubulin (Cell Signaling) Abs or 10 nM RI-3, and allowed to adhere for 2 h at 37 °C, 5% CO2. […] At the end of the assay, adherent cells were removed with 0.05% trypsin, and counted. The number of adherent cells was expressed as a percentage of the basal cell adhesion (CTRL). The experiments were performed at least three times in triplicate.

primary EOC cells [1] = test: Adhesion of primary EOC cells onto matrix proteins monitored in real time (xCELLigence); assay type: cell-based, human
Protocol: This assay was performed using E-16-well plates and the xCELLigence Real Time Cell Analysis technology. Bottom wells were coated with serum-free medium, 5 μg mL Vn, 5 μg mL Fn, 5 μg mL Lm or 15 μg mL Coll diluted in serum-free medium prior to seeding cells (1 × 10^4 cells/well) suspended in serum-free medium. Cells that adhere to the bottom of plates cause impedance changes which are proportional to the number of cells. The impedance value of each well was automatically monitored in real-time for at least 2 h and expressed as a cell index value. The experiments were performed three times in quadruplicate.
Fig. 6 RI-3 prevents EOC cell adhesion and subsequent invasion of mesothelium. a Adhesion of primary EOC cells on E-plates coated with 1% BSA (CTRL), 5 μg mL Vn, 5 μg mL Fn, 5 μg mL Lm or 15 μg mL Coll, with/without 10 nM RI-3, monitored in real time for 5 h by the xCELLigence system. Data represent mean ± SD from a quadruplicate experiment representative of 3 replicates. b-c Adhesion of EOC cells onto Vn in the absence or presence of 10 nM RI-3, monitored in real time for 3 h by the xCELLigence system. […] At the indicated times, cell associated fluorescence was assessed by a fluorescence plate reader. […] Cells invasion was monitored in real-time as changes in Cell Index due to breaking of the monolayer integrity (e). […]

primary EOC cells [2] = test: HPMC invasion by primary EOC cells monitored in real time; assay type: cell-based, human; details: 10 nM RI-3; xCELLigence, slopes 18–24 h; quadruplicate representative of 3 replicates
Protocol: (§1) HPMCs (5 × 10^3 cells/well) suspended in growth medium, were seeded in E-16-well plates and allow to adhere for 18–20 h until they form a confluent monolayer, prior to seeding EOC cells (2 × 10^4 cells/well) in growth medium plus/minus 10 nM RI-3. When HPMCs are challenged with invading cells, there is a drop in electrical resistance within 2–4 h which is monitored in real-time as the Cell Index changes due to the rupture of mesothelium. The experiments were performed three times in quadruplicate.

EOC cells = test: EOC cell adhesion to and crossing of mesothelial cell monolayers (summary statement); assay type: cell-based, human; details: EOC cells exposed to RI-3 or desensitized with an excess of SRSRY
Protocol: HPMCs (1 × 10^5 cells/well) suspended in growth medium, were seeded in 24-well plates and allowed to adhere for about 20 h until they form a confluent monolayer, prior to seeding GFP-tagged EOC cells suspended in growth medium plus diluents or 10 nM RI-3. At the indicated times, plates were accurately washed with PBS and cell-associated fluorescence was assessed by a fluorescence plate reader a fluorescence plate reader (Victor 3, Perkin Elmer), using 485 nm excitation and 535 nm emission filters. The experiments were performed three times in triplicate.
as §1

FPR1 = FPR1 overexpressing rat basophilic leukaemia RBL-2H3/ETFR cells; stated also as conclusion for primary EOC cells; ref [38]; cited from earlier work
Description: In order to obtain primary cultures of EOC cells, representative fragments of tissue samples were fragmented and cells recovered, as described in the Methods. By enzymatic digestion of a HGSC tissue sample (patient #5), a primary cell culture expressing high levels of both uPAR and FPR1 on cell surface as shown by IHC, was obtained (Figs. 4 and 5a). Subsequent sub-cloning of isolated cell clusters (Fig. 5b) followed by five passages allowed us to obtain an adherent, homogeneous, CD326 positive cell population. These EOC cells express a considerable amount of both uPAR and FPR1 as shown by West ...

Ac-[dY][dR][Aib][dR]-NH2 [RI-3, retro-inverso peptide, uPAR/FPR1 antagonist]
basal cell adhesion and adhesion to Coll-, Fn- and Lm-coated plates (SKOV-3 cells; SKOV-3, 10 nM RI-3, 2 h, BSA (basal), collagen, fibronectin, laminin, three independent experiments): neither affected basal cell adhesion, nor cell adhesion to Coll- Fn- and Lm-coated plates | extent of cell adhesion onto Vn with RI-3 (SKOV-3 cells; SKOV-3, 10 nM RI-3, Fig. 2d (2 h, cell counting) and Fig. 2e (real time 2 h)): dramatically reduced the extent of cell adhesion onto Vn | reduction of primary EOC cell adhesion onto Vn (primary EOC cells [1]; 10 nM RI-3, 5 μg mL Vn, real time, slopes 10–120 min, quadruplicate representative of 3 replicates): 55% | matrix selectivity of adhesion reduction, primary EOC cells (primary EOC cells [1]; 10 nM RI-3, Vn vs Fn, Coll, Lm, real time 5 h): exclusively reduced cell adhesion onto Vn | reduction of capability of EOC cells to cross the mesothelial cell monolayer (primary EOC cells [2]): about 80% | ability to cross mesothelial cell monolayers (abstract) (EOC cells): losing the ability to cross them | FPR1 binding and blockade of internalization and function (FPR1): binds to FPR1 blocking its internalization and function
